Assay results reported in PubChem BioAssay AID624254 (Broad Institute, 2012).
Activity calls are given as the source filed them. How the calls were made is not given here.

experiment: Quorum luxo inducers, light production, v cholerae bh1651 luxod47e, confirmatory dose response (AID 624254); settings: V. cholerae BH1651 luxOD47E, luciferase light induction, 6 h; at 50 µM (top of the series)

SMILES	activation (light increase)
CCOC(=O)CSc1nc(C)cc(C)c1C#N	inactive
CCC(=O)c1coc2ccc(O)cc12	inactive
Cc1ccc(CN2C(=O)CCC2C(=O)NCCN(CC(C)C)CC(C)C)cc1 (stereo not drawn)	inactive
COc1ccc(Cl)cc1NC(=O)CN1CCc2ccccc2C1	inactive
CN(Cc1cn[nH]c1-c1cc2ccccc2o1)CC1CCOCC1	inactive
CC(C#N)On1c(SC(C)C#N)nc2ccccc2c1=O (stereo not drawn)	inactive
O=C(NCCC(=O)N1CCN(c2ccc(F)cc2)CC1)c1ccco1	inactive
Cc1cc(C(F)(F)F)c2c(N)c(C(=O)NC3CC3)sc2n1	inactive
CC(C)(C)OC(=O)NCCCC(CCCNC(=O)OC(C)(C)C)C(=O)O	inactive
C[C@@H]1CN([C@H](C)CO)C(=O)c2cccc(NC(=O)C3CC3)c2O[C@H]1CN(C)S(=O)(=O)c1cccs1	inactive
Fc1ccc(NCc2cn3ccccc3n2)cc1	inactive
O=S(=O)(Nc1ccccn1)c1ccccc1	inactive
C=CCn1c(=O)c(C(=O)NC(C)c2ccccc2)c(O)c2ccccc21 (stereo not drawn)	inactive
CN(Cc1nc2ccccc2n1C)C(=O)c1ccco1	inactive
O=S(=O)(Nc1cccnc1)c1ccc(Oc2ccccc2)cc1	inactive
CCCCNC(=O)Nc1cc(C)on1	inactive
N#CCSc1ccccc1NC(=O)COC(=O)CCNC(=O)c1ccc([N+](=O)[O-])cc1	inactive
CC(C)CNC(=O)c1c2c(nc3ccccc13)-c1ccccc1CC2	inactive
COc1ccc(C(=O)O)cc1S(=O)(=O)Nc1cccc(C(F)(F)F)c1	inactive
O=C(Nc1c(F)c(F)c(F)c(F)c1F)C1CCCCC1	inactive
Cc1nnc2c3ccccc3c(-c3ccc(O)cc3)nn12	inactive
CC(OC(=O)c1ccc(-n2cnnn2)cc1)C(=O)N(C)c1ccccc1 (stereo not drawn)	inactive
CCCn1nnnc1NCc1ccc(OC)cc1	inactive
CC(C)Oc1ccc(C(=O)Nc2cc(S(=O)(=O)N3CCOCC3)ccc2N2CCOCC2)cc1	inactive
Cc1ccc(C)c(NC(=O)CN(C)C(=O)CCN2C(=O)c3ccccc3C2=O)c1	inactive

SMILES	activation (light increase)
O=C(COC(=O)c1ccc(Br)cc1)NC1CCCC1	inactive
Cc1cc(Cl)ccc1OCC(=O)OCC(=O)NC1CCS(=O)(=O)C1 (stereo not drawn)	inactive
CCN(CC)c1ccc(CNc2nnnn2C)cc1	inactive
CC(C)CNC(=O)COC(=O)/C=C/c1ccco1	inactive
CCCn1nnnc1NCc1ccc(CC)cc1	inactive
CCCOc1cc(C)c(S(=O)(=O)NCCOC)cc1C	inactive
COc1cccc(CNC(=O)C2CSC3(C)CCC(=O)N23)c1 (stereo not drawn)	inactive
Cc1cc(COc2ccccc2O)on1	inactive
COc1cccc(CNC(=O)COC(=O)CN(C)S(=O)(=O)c2ccc(NC(C)=O)cc2)c1	inactive
Cn1cnc(S(=O)(=O)Nc2ccccc2F)c1	inactive
O=C(Oc1ccc2ccc(OC(=O)N3CCOCC3)cc2c1)N1CCOCC1	inactive
O=S(=O)(Cc1ccc(Cl)cc1)N1CCN(Cc2ccccc2)CC1	inactive
C=Cn1c(C(=O)O)ccc1-c1ccccc1	inactive
C[C@H]1CN([C@@H](C)CO)C(=O)c2cccc(NC(=O)Nc3ccc4c(c3)OCO4)c2O[C@H]1CN(C)S(=O)(=O)c1ccccc1	inactive
O=C(NCCN1CCOCC1)c1cccc(NS(=O)(=O)c2ccc(Br)cc2)c1	inactive
Cc1cc(C(=O)OCC(=O)Nc2ccccc2F)c(C)o1	inactive
CCCNC(=O)COC(=O)/C=C/c1ccco1	inactive
COCCCNC(=O)c1ccc2c(=O)n(C3CCCC3)c(=S)[nH]c2c1	inactive
CC(OC(=O)Cn1cnc2c1c(=O)n(C)c(=O)n2C)C(=O)c1ccccc1 (stereo not drawn)	inactive
O=C(c1cc2ccccc2cc1O)N1CCN(c2ccccc2O)CC1	inactive
COc1ccc(NC(=O)C(=O)NCC2CCCN2S(=O)(=O)c2ccc(C)cc2)cc1 (stereo not drawn)	inactive
CCOc1ccc(Nc2ccc3nonc3c2[N+](=O)[O-])cc1	inactive
CCCCOC(=O)n1c(=O)oc2ccccc21	inactive
CC(=O)Nc1ccc(NC(=O)c2ccccc2C)cc1	inactive
C[C@H](CO)N1C[C@H](C)[C@@H](CN(C)S(=O)(=O)c2ccc(F)cc2)Oc2c(NC(=O)Nc3ccc4c(c3)OCO4)cccc2C1=O	inactive

SMILES	activation (light increase)
Cn1cnc(S(=O)(=O)Nc2ccc(C(F)(F)F)cc2)c1	inactive
O=C(OCc1cc(=O)n2ccsc2n1)c1ccc(OC(F)F)cc1	inactive
Cc1cc(N2CCC(C)CC2)nc2ccc(N3C(=O)CCC3=O)cc12	inactive
COc1ccccc1CNC(=O)c1ccc(S(=O)(=O)N(C)c2ccccc2)cc1	inactive
Cc1ccccc1NS(=O)(=O)c1cn(C)cn1	inactive
NNC(=O)c1nnn(-c2nonc2N)c1CN1CCCC1	inactive
C[C@@H]1CN([C@H](C)CO)C(=O)c2cccc(NC(=O)Nc3ccc4c(c3)OCO4)c2O[C@@H]1CN(C)S(=O)(=O)c1ccccc1	inactive
Cc1noc(C)c1NC(=O)Nc1cccc2c1O[C@@H](CN(C)S(=O)(=O)c1cccs1)[C@@H](C)CN([C@@H](C)CO)C2=O	inactive
COc1ccc(OCc2nnc3n2N=C(c2ccc(OC)cc2)CS3)cc1	inactive
Cn1c(=O)c2c(nc(SCCN3CCOCC3)n2Cc2cccc3ccccc23)n(C)c1=O	inactive
O=C(c1cn(-c2ccccc2)nc1-c1cccs1)N1CCOCC1	inactive
CC(=O)c1cccc(NC(=O)CSc2nc(=O)n(CCN3CCOCC3)c3c2CCCC3)c1	inactive
CCOCCCNC(=O)C(NC(=O)c1cnccn1)c1ccc(C)cc1 (stereo not drawn)	inactive
COC(=O)Cc1c(C)c2ccc(OC(=O)c3ccccc3)cc2oc1=O	inactive
CCC(C)NC(=O)Cc1ccc(-c2ccccc2)cc1 (stereo not drawn)	inactive
Cc1noc(C)c1NC(=O)Nc1cccc2c1O[C@H](CN(C)S(=O)(=O)c1cccs1)[C@@H](C)CN([C@H](C)CO)C2=O	inactive
Oc1ccc(-c2cn3c(n2)SCC3)cc1	inactive
COc1ccccc1CNC(=O)COC(=O)c1n[nH]c2ccccc12	inactive
OCCN1CCN(CC(O)COc2ccc(Cl)cc2)CC1 (stereo not drawn)	inactive
O=S(=O)(Nc1ccc(-c2csc(-c3ccccc3)n2)cc1)c1ccc(F)cc1	inactive
CCSc1nnc(NC(=O)c2ccc3ccccc3n2)s1	inactive
COc1cc(NC(=O)CN2C(=O)NC(c3ccccc3)(c3ccccc3)C2=O)cc(OC)c1	inactive
O=C(Nc1cccc(-c2ccc(N3CCOCC3)nn2)c1)c1ccccc1Cl	inactive
COc1ccccc1NS(=O)(=O)c1cccc(C(=O)NCC(c2ccco2)N2CCCCC2)c1 (stereo not drawn)	inactive
O=C(Oc1ccc(=O)n(-c2ccccc2)n1)c1cccc(Cl)c1	inactive

SMILES	activation (light increase)
O=C(NCc1nc(-c2ccccc2)no1)c1cccs1	inactive
CC(=O)c1cc2c(cc1NS(=O)(=O)c1ccccc1)OCO2	inactive
CC(=O)c1cc2c(cc1NC(=O)Cc1c(C)noc1C)OCO2	inactive
Cc1cccc(N(CC(N)=O)C2SC(=O)N(c3ccccc3)C2=O)c1 (stereo not drawn)	inactive
NC(=O)c1cc(Br)cc(C2CCCCC2)c1O	inactive
CCCCCn1c(SCC(=O)OCC)nc2cc(C(=O)N3CCC(C(N)=O)CC3)ccc2c1=O	inactive
Cc1noc(C)c1COc1ccc(C(=O)NCC(c2c(F)cccc2Cl)N(C)C)cc1 (stereo not drawn)	inactive
CCN(CCNC(=O)C1CCCN(S(=O)(=O)CC)C1)c1ccccc1 (stereo not drawn)	inactive
COC(=O)c1cnn(-c2nc(-c3ccccc3)cs2)c1N	inactive
CN(CC(=O)Nc1ccc(OC(F)(F)F)cc1)C(=O)C1CCC1	inactive
COc1ccc(OC)c(NC(=O)Nc2cccc(Cn3cccn3)c2)c1	inactive
COCCNC(=O)CN1CCN(C(c2ccccc2)c2ccccc2)CC1	inactive
CCCc1ccc2oc(C(=O)N(Cc3ccncc3)CC3CCCO3)c(C)c2c1 (stereo not drawn)	inactive
CCN(CC(=O)NCc1ccc(Cl)cc1)C(=O)CSc1ccccc1	inactive
Cn1cnc(S(=O)(=O)Nc2ccc(-c3ccccc3)cc2)c1	inactive
Nc1nc(SCc2nc3sc4c(c3c(=O)[nH]2)CCCC4)n[nH]1	inactive
CC12CCC(=O)N1C(C(=O)NNC(=O)COc1ccc(Br)cc1)CS2 (stereo not drawn)	inactive
N#Cc1nc(-c2ccc(OCc3ccc(Cl)cc3)cc2)oc1NCc1cccnc1	inactive
COc1cc(OC)c(OC)cc1CNC(C)C(O)c1ccccc1 (stereo not drawn)	inactive
Cn1cnc(S(=O)(=O)Nc2ccc(Oc3ccccc3)cc2)c1	inactive
O=S(=O)(Nc1ccccn1)c1ccc(Oc2ccccc2)cc1	inactive
Cc1noc(C)c1NC(=O)Nc1cccc2c1O[C@@H](CN(C)S(=O)(=O)c1cccs1)[C@@H](C)CN([C@H](C)CO)C2=O	inactive
CC(C)Oc1ccc(OCCCN2CCCCCC2)cc1	inactive
